A word on the pEC50: it is the negative decadic logarithm of the EC50, by convention in mol/L.

The text below walks through data of patent US8946142B2, “Beta-arrestin effectors and compositions and methods of use thereof” (Trevena, Inc., priority 2012, dated 2015).

What all share (assay type): cell-based
Assay [1] has as its target T1, human AT1R (Homo sapiens, UniProt P30556).
T1 sequence (P30556 1-359): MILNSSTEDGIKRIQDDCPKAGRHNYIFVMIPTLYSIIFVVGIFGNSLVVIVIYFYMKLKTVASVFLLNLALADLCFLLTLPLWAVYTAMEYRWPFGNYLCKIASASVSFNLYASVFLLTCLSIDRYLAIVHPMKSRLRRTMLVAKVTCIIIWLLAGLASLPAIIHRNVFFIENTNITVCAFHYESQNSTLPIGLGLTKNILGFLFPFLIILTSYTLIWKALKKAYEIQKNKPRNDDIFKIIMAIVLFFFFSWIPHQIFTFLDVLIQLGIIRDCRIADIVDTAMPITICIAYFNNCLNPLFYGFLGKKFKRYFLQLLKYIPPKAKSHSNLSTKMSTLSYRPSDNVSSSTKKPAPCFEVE
In words: beta-arrestin2 recruitment assay (PathHunter), human AT1R. The settings on record: for Emax: 1 h, read-out: Span (relative to hAngII); for pEC50: read-out: EC50; for EC50: read-out: pEC50 (converted). The essentials:
(§1)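 PathHunter enzyme-complementation assay in HEK293 cells stably expressing ProLink-tagged human AT1R or rat AT1aR; peptides (final 100 μM–1 pM) in HBSS/20 mM HEPES for 60 min at 37 °C. Detection reagent 60 min at room temperature; β-arrestin-2 recruitment read as relative luminescence.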
Background: Activated receptors often draw arrestin, which recruitment assays turn into a signal.

Assay [2] has as its target T2, rat AT1aR (Rattus norvegicus, UniProt P25095).
T2 sequence (P25095 1-359): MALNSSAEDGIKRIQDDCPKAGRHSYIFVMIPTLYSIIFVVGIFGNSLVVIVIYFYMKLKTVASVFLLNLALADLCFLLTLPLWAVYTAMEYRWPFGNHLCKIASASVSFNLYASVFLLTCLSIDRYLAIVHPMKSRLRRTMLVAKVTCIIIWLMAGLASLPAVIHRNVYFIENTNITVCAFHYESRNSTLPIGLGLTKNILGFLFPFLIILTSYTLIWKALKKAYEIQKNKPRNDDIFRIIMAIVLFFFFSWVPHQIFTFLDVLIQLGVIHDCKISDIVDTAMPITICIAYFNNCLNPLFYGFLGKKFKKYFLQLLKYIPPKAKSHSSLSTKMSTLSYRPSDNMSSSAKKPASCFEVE
In words: IP1 accumulation assay (IP1 G-protein assay), rat AT1aR. Particulars: for pEC50: read-out: EC50; for Emax: read-out: Span (relative to hAngII); for EC50: read-out: pEC50 (converted). As to the method:
(§2) A secondary measure of G protein coupling efficacy was also performed. IP3 is generated by activation of phospholipase C by Gα-q. IP3 is degraded to IP1, which can be forced to accumulate in cells by blocking degradation with lithium chloride. Thus we measured accumulation of IP1 to determine ligand efficacy for G protein activation.
(§3) IP1 accumulation generated by human and rat angiotensin 2 type 1 receptor (human AT1R and rat AT1aR, respectively) was measured with IP-One Tb kits purchased from Cisbio and used per the manufacturer's instructions. Clonal stably transfected cell lines expressing human AT1TR or rat AT1aR were used for all experiments.
(§4) For assays, 4,000-8,000 cells were seeded per well in 384-well small-volume microplates “HiBase” small-volume plate in volumes of 20 uL and allowed to grow overnight at 37° C. in 5% CO2. Cell growth media was then replaced with stimulation buffer supplied by Cisbio containing 50 mM lithium chloride. […] For agonist detection, peptides were then further diluted in stimulation buffer to add peptide to the cells to reach final concentrations ranging from 100 uM to 1 pM. Following addition of peptides, cells were incubated at 37° C. in 5% CO2 for 30 minutes and then lysed with 4 uL of pre-mixed HTRF IP-One reagents diluted per manufacturer's instructions (Cisbio). Microplates were incubated for 60-90 minutes at room temperature and then time-resolved fluorescence intensities were measured using a PHERAstar Plus microplate reader from BMG Labtech. IP1 accumulation was measured as change in ratio of time-resolved fluorescent intensities measured at 665 nm and 620 nm.

The target in assay [3] is T1, human AT1R. The assay is described as follows: IP1 accumulation assay (IP1 G-protein assay), human AT1R. Particulars: for pEC50: read-out: EC50; for Emax: read-out: Span (relative to hAngII); for EC50: read-out: pEC50 (converted). As to the method:
as §2, §3, §4

The target of assay [4] is T2, rat AT1aR. In words: beta-arrestin2 recruitment assay (PathHunter), rat AT1aR. The settings on record: for Emax: 1 h, read-out: Span (relative to hAngII); for pEC50: read-out: EC50; for EC50: read-out: pEC50 (converted). The essentials:
as §1

pEC50: −log10 of the molar value. Where a SMILES comes first, the peptide text is derived from it. [ ]: non-standard residue; d: D form. Ac6c = NC1(C(=O)O)CCCCC1; Ac5c = NC1(C(=O)O)CCCC1; Sar = CNCC(=O)O

`CNCC(=O)N[C@@H](CCCNC(=N)N)C(=O)N[C@H](C(=O)N[C@@H](Cc1ccc(O)cc1)C(=O)NC1(C(=O)N[C@@H](Cc2c[nH]cn2)C(=O)N2CCC[C@H]2C(=O)N[C@@H](CCC(N)=O)C(=O)O)CCCCC1)C(C)C` [SEQ ID NO: 38, Sar-Arg-Val-Tyr-cyHex-His-Pro-Gln] (H-[Sar]RVY[Ac6c]HPQ-OH): the Emax in assay [1] is < 101%; in assay [2], < 104%; in assay [3] it was < 103%; in assay [4] it was < 105%. For the same compound, the pEC50 is < 8.49 in assay [1], < 9.22 in assay [2], < 8.89 in assay [3] and < 8.49 in assay [4]. The EC50 is > 3.16 nM in assay [1], > 0.631 nM in assay [2], > 0.631 nM in assay [3] and > 3.16 nM in assay [4].

Consider `CNCC(=O)N[C@@H](CCCNC(=N)N)C(=O)N[C@H](C(=O)N[C@@H](Cc1ccc(O)cc1)C(=O)NC1(C(=O)N[C@@H](Cc2c[nH]cn2)C(=O)N2CCC[C@H]2C(=O)N[C@H](C(=O)O)C(C)C)CCCCC1)C(C)C` [SEQ ID NO: 13, Sar-Arg-Val-Tyr-cyHex-His-Pro-Val] (H-[Sar]RVY[Ac6c]HPV-OH), for which the Emax in assay [1] is 103%; in assay [4] it was < 105%. In addition, the pEC50 was < 8.49 in assay [1], < 9.22 in assay [2], < 8.89 in assay [3] and < 8.49 in assay [4]. In addition, the EC50 is > 3.16 nM in assay [1], > 0.631 nM in assay [2], > 0.631 nM in assay [3] and > 3.16 nM in assay [4].

On to `CNCC(=O)N[C@@H](CCCNC(=N)N)C(=O)N[C@H](C(=O)N[C@@H](Cc1ccc(O)cc1)C(=O)N1CCC[C@H]1C(=O)N[C@@H](Cc1c[nH]cn1)C(=O)N1CCC[C@H]1C(=O)N[C@@H](CC(C)C)C(=O)O)C(C)C` [SEQ ID NO: 5, Sar-Arg-Val-Tyr-Pro-His-Pro-Leu] (H-[Sar]RVYPHPL-OH; N-terminus and C-terminus assumed), for which the Emax in assay [1] was < 101%; in assay [2], < 104%; in assay [3], < 103%; in assay [4], < 105%.

Regarding `CNCC(=O)N[C@@H](CCCNC(=N)N)C(=O)N[C@H](C(=O)N[C@@H](Cc1ccc(O)cc1)C(=O)NC1(C(=O)N[C@@H](Cc2c[nH]cn2)C(=O)N2CCC[C@H]2C(=O)N[C@@H](Cc2c[nH]c3ccccc23)C(=O)O)CCCCC1)C(C)C` [SEQ ID NO: 54, Sar-Arg-Val-Tyr-cyHex-His-Pro-Trp] (H-[Sar]RVY[Ac6c]HPW-OH), the Emax in assay [1] is < 101%; in assay [2], < 104%; in assay [3], < 103%; in assay [4] it was < 105%. Besides, the pEC50 was < 8.49 in assay [1], < 9.22 in assay [2], < 8.89 in assay [3] and < 8.49 in assay [4]. The EC50 in assay [1] was > 3.16 nM; in assay [2], > 0.631 nM; in assay [3] it was > 0.631 nM; in assay [4] it was > 3.16 nM.

Regarding `CNCC(=O)N[C@@H](CCCNC(=N)N)C(=O)N[C@H](C(=O)N[C@@H](Cc1ccc(O)cc1)C(=O)NC1(C(=O)N[C@@H](Cc2c[nH]cn2)C(=O)N2CCC[C@H]2C(=O)N[C@@H](CO)C(=O)O)CCCC1)C(C)C` [SEQ ID NO: 22, Sar-Arg-Val-Tyr-cyPen-His-Pro-Ser] (H-[Sar]RVY[Ac5c]HPS-OH), the Emax in assay [1] was < 101%; in assay [2], < 104%; in assay [4], < 105%. In addition, the negative logarithm of the EC50 (pEC50) in assay [1] is < 8.49; in assay [2] it was < 9.22; in assay [3], < 8.89; in assay [4], < 8.49. In addition, the EC50 in assay [1] was > 3.16 nM; in assay [2] it was > 0.631 nM; in assay [3], > 0.631 nM; in assay [4], > 3.16 nM.
